According to publication PMC6020026 (Bioorganic & medicinal chemistry letters, 2017):

Experiment: Cytotoxicity on differentiated THP-1 macrophages
Assay type: cell-based
Settings: human
[1] = differentiated THP-1 macrophages

SMILES	CC50 [1]	CC50
CC(C)(C)c1ccc(C(=O)/C=C/c2ccc([N+](=O)[O-])s2)cc1 [LabMol-86]	8.4 µM	
O=C(/C=C/c1ccc([N+](=O)[O-])o1)c1ccc(C2CCCCC2)cc1 [LabMol-72]	31.1 µM	
C[C@@H]1[C@H](O)[C@@H](C)/C=C/C=C/C=C/C=C/C=C/C=C/C=C/[C@H](O[C@@H]2O[C@H](C)[C@@H](O)[C@H](N)[C@@H]2O)C[C@@H]2O[C@](O)(C[C@@H](O)C[C@@H](O)[C@H](O)CC[C@@H](O)C[C@@H](O)CC(=O)O[C@H]1C)C[C@H](O)[C@H]2C(=O)O [Amph.B, Amphotericin B, reference compound]	9.8 µM	
CSc1ccc(C(=O)/C=C/c2ccc([N+](=O)[O-])o2)cc1 [LabMol-92]		13.1 µM
O=C(/C=C/c1ccc([N+](=O)[O-])o1)c1ccc(I)cc1 [LabMol-78]	49.5 µM	
